From patent US20130079309A1, “Method Of Treating Acute Lung Injury Using Sphingosine 1 Phosphate Analogs Or Sphingosine 1 Phosphate Receptor Agonists” (The Board of Trustees of the University of Illinois, priority 2010, published 2013)

Columns and labels:
[1] = tested on: radiation-induced lung injury (RILI) in C57BL/6 mice; assay: Murine model of RILI: BAL protein, BAL cell counts, BAL cytokines, EBD extravasation, body weight, lung histology; assay type: in vivo, mouse; conditions: for lung histology: inflammatory cell infiltration and interstitial edema induced by radiation: 0.1 mg/kg i.p. 2×/wk, 25 Gy; for lung histology: inflammatory cell infiltration and interstitial edema induced by radiation / BAL cell counts vs RILI-challenged controls / BAL protein vs RILI-challenged controls: 6 weeks; for BAL cell counts vs RILI-challenged controls / BAL protein vs RILI-challenged controls: 0.01 or 0.1 mg/kg i.p. 2×/wk from 1 wk before irradiation (20 Gy); for BAL cell counts vs RILI controls / BAL protein levels vs RILI controls: 3 times/wk from 1 wk before irradiation (20 Gy) up to 6 wks; for BAL cell counts vs RILI controls / BAL protein levels vs RILI controls / body weight loss after irradiation: simvastatin 10 mg/kg; for body weight loss after irradiation: analogs 0.1 mg/kg i.p., 3 times/wk from 1 wk before irradiation up to 6 wks
Method: Eight to 10-week-old C57BL/6J mice (Jackson Labs, Bar Harbor, Me.) were used for all studies in accordance with the University of Chicago Institutional Animal Care & Use Committee guidelines.
At the termination of each experiment, animals were euthanized by exsanguination under anesthesia in accordance with institutional guidelines. Both lungs were lavaged with 1.0 mL of Hank's buffered saline solution with the fluid allowed to equilibrate for 10 s before withdrawing. The pulmonary vasculature was perfused clear via the pulmonary artery with sterile phosphate-buffered saline (PBS). Both lungs were excised, weighed, and snap-frozen in liquid nitrogen for subsequent analysis. The BAL fluid collected was centrifuged at 500×g for 20 min at 4° C., and the supernatant was removed and recentrifuged at 12,000×g before snap-freezing. Cell pellets were resuspended in 0.5 mL of red blood cell lysis buffer (ACK Lysing Buffer; BioSource International, Camarillo, Calif.) for 20 min and then repelleted by centrifugation at 2500 rpm for 20 min at 4° C. The supernatant was decanted, and the cell pellet was resuspended in 0.2 mL of PBS for cellular analysis using a standard hemacytometer technique. A total of 300 BAL cells per slide were counted for cell differentials using a Diff-Quick-stained kit (Baxter Diagnostics, McGaw Park, Ill.). BAL protein concentrations were determined by a colorimetric BCA assay. Albumin concentrations in the BAL at 1:1000 and 1:100 dilutions, respectively, were quantitated by ELISA (Bethyl Labs, Montgomery, Tex.). To measure cytokines and chemokines, the BAL fluid was assayed with a Bioplex mouse cytokine kit (Bio-Rad, Hercules, Calif.) in accordance with the manufacturer's instructions.
All other chemicals were analytical or cell-culture grade and were obtained from various commercial sources. Evans Blue dye conjugated to albumin (EBA) was prepared by dissolving EBD to a concentration of 0.5% (5 mg/mL or 5.2 mM) in phosphate-buffered saline (PBS) (Ca^2+-Mg^2+ free; Invitrogen Corporation, Carlsbad, Calif.). To this solution, BSA was added to a final concentration of 4% (40 mg/mL or 0.6 mM), mixed well by stirring with a magnetic bar, allowed to stand for 30 min, and then sterile-filtered through a 0.22-μm syringe filter. The conjugate was stored in small aliquots at −80° C. To prevent cross-contamination, each aliquot was used only once in one animal and then discarded. 4, 6, 8, or 12 weeks after irradiation, the animals were injected with EBA via the jugular vein. At the end of exposure, the pulmonary circulation was flushed and lungs were harvested. Formamide extracts of lungs were prepared, with the initial modification that the homogenates were centrifuged at 12,000×g. Centrifugation at this relative centrifugal force (RCF) produced a compact pellet that allowed accurate measurement of the recovered volumes. Accurate estimation of such volumes is critical for calculating the final tissue dilution factor. Lungs, kidneys, and hearts from mice that were not injected with EBA were similarly extracted, to calculate the tissue-specific correction factors. […] Linear regression equations between absorbance at 740 nm (X) and 620 nm (Y) in tissue extracts of animals untreated with EBA were considered to be the tissue-specific correction factors. […] The EB concentration read in mg/mL was converted to μg/g wet weight of lungs using the dilution factor of the original homogenate as described above.
Eight to 10-week-old C57BL/6J mice (Jackson Labs, Bar Harbor, Me.) were used for all studies in accordance with the University of Chicago Institutional Animal Care & Use Committee guidelines. […] (FIG. 4A). Bronchoalveolar lavage (BAL) was performed as described above. BAL protein concentrations were determined by a colorimetric BCA assay. Albumin concentrations in the BAL at 1:1000 and 1:100 dilutions, respectively, were quantitated by ELISA (Bethyl Labs, Montgomery, Tex.).

ERK = assay: Western blotting of HPAEC lysates for phospho-ERK; assay type: cell-based, human; conditions: 5 min
Method: (§1) After treatment as outlined for individual experiments, confluent HPAEC were lysed for Western blotting with phospho-MLC, pan-MLC, phospho-ERK, or pan-ERK antibodies. […] Membranes were then immunoblotted with primary antibodies (1:500-1000, 4° C., overnight) followed by secondary antibodies conjugated to horseradish peroxidase (1:5000, room temperature, 30 min) and detected with enhanced chemiluminescence (Pierce ECL or SuperSignal West Dura; Pierce Biotechnology, Rockford, Ill.) on Biomax MR film (Carestream Health, Rochester, N.Y.).

MLC = assay: Western blotting of HPAEC lysates for phospho-MLC; assay type: cell-based, human; conditions: 5 min
Method: as §1

HPAEC = assay: Intracellular calcium by Fura-2; assay type: cell-based, human; conditions: 1 μM
Method: To further explore the mechanistic differences in barrier regulation, intracellular calcium responses to the FTY720 analogs, S1P, and FTY720 were examined using Fura-2 (Harbeck et al., 2006, Sci STKE 2006: p16). HPAEC plated on 25-mm glass coverslips were loaded with 1 μM Fura-2/acetoxymethyl ester (Invitrogen, Carlsbad, Calif.) for 20 min at 37° C. in KRBH5 buffer (Krebs-Ringer-bicarbonate solution containing 119 mM NaCl, 4.7 mM KCl, 2.5 mM CaCl2, 1 mM MgCl2, 1 mM KH2PO4, 25 mM NaHCO3, mM HEPES-NaOH (pH 7.4), and 5 mM glucose). After replacement of the Fura-2 loading buffer with fresh KRBH5, coverslips were placed into the specimen stage of an inverted fluorescence microscope (Nikon TE-2000U). A Nikon Super Fluor 10× objective was used for these studies. Filters (340- and 380-nm excitation and 530-nm emission) were used for Fura-2 dual excitation ratio imaging. […] Fura-2 ratios were converted to [Ca^2+] using the equation: [Ca^2+]=(Kd′[(R−Rmin)/(Rmax−R)]×Sf/Sb) (Grynkiewicz et al., 1985, J Biol Chem 260: 3440-3450), where Kd′ is the dissociation constant for Fura-2 in the cytosol (225 nM) and Sf and Sb are the measured emission intensities at 380 nm for Ca^2+-free and Ca^2+-bound Fura-2, respectively. Data summaries for all Ca^2+ measurements are expressed as the means±S.E.

[2] = tested on: bleomycin-induced ALI in C57/BL6 mice; conditions: Shea et al., 2010; cited from earlier work

In the case of `CCCCCCCCc1ccc(CC[C@@](N)(CO)CCP(=O)(O)O)cc1` [1S, (S)-3-amino-3-(hydroxymethyl)-5-(4-octylphenyl)pentylphosphonic acid], the “lung histology: inflammatory cell infiltration and interstitial edema induced by radiation” value [1] is reported as “markedly attenuated”, the “BAL cell counts vs RILI-challenged controls” value [1] is reported as “significant decreases” and the “BAL protein vs RILI-challenged controls” value [1] is reported as “significant decreases”. For the same compound, the “BAL cell counts vs RILI controls” value [1] was “significant decreases”, the “BAL protein levels vs RILI controls” value [1] was “significant decreases” and the “body weight loss after irradiation” value [1] was “did not lose weight”. For the same compound, the ERK phosphorylation (ERK) was “failed to induce phosphorylation”.
In the case of `CCCCCCCCc1ccc(CCC(N)(CO)CO)cc1` [FTY720, 2-amino-2-[2-(4-octylphenyl)ethyl]propane-1,3-diol], the MLC phosphorylation (MLC) is reported as “Neither FTY720 nor any of its analogs induced significant MLC phosphorylation”, the “lung histology: inflammatory cell infiltration and interstitial edema induced by radiation” value [1] is reported as “to a lesser extent” and the “BAL cell counts vs RILI-challenged controls” value [1] is reported as “did not confer significant protection”. The “BAL protein vs RILI-challenged controls” value [1] was “did not confer significant protection”, the “BAL cell counts vs RILI controls” value [1] was “did not confer significant protection” and the “BAL protein levels vs RILI controls” value [1] was “did not confer significant protection”. The “body weight loss after irradiation” value [1] was “did not show any beneficial effect”, the “intracellular calcium [Ca2+]i” value (HPAEC) was “only S1P produced a transient Ca^2+ spike” and the “lung injury and mortality in bleomycin-injured mice on prolonged exposure” value [2] was “increased lung injury and mortality”.
